{"source": "patent US20230248689A1", "about": "“PHARMACEUTICAL FORMULATIONS OF GRISEOFULVIN FOR LONG-TERM OCULAR DELIVERY” (Purdue Research Foundation, priority 2020, published 2023)", "key": {"[1]": {"test_system": "human retinal endothelial cells (HRECs)", "assay": "Anti-proliferative effect on HRECs (Alamar Blue)", "type": "cell-based", "settings": "100 μM GRF equivalent, 48 hours", "description": "Human retinal endothelial cells (HREC) were plated in transparent 96 well plates at a density of 2500 cells per well in 100 μL of growth medium and incubated for 24 h at 37° C. The medium was replaced with the samples collected at different time points. After 48 hours incubation, 11.1 μL Alamar Blue reagent was added to each well. After 4 hours incubation, plates were centrifuged at 200 g for 5 minutes, and 50 μL supernatant was transferred to black 96 well plates. Fluorescence intensity of each well was read with excitation and emission wavelengths of 560 nm and 590 nm, respectively."}, "[2]": {"test_system": "human retinal endothelial cells (HREC)", "assay": "Long-term proliferation assay on HRECs with release samples collected over time", "type": "cell-based", "description": "The formulations of the present invention, i.e. microparticles (MPs) or nanoparticles (NPs) of the griseofulvin (GRF) were tested for in vitro cell study, in particular long-term proliferation assay. This study provides an estimation of in vivo effect of griseofulvin formulations. To compare the long-term antiproliferative effect on human retinal endothelial cells (HREC), time averaged proliferation inhibition index (PII) was calculated (Σ AUC/time) from the plot of % proliferation at each time vs. time. The higher the PII indicating the prolonged anti-proliferative effects on HREC.\nThe long-term anti-proliferation effect of GRF loaded NPs from example 3B was studied, wherein GRF-PLGA-NPs were dispersed in 0.5 mL of growth media at GRF concentration ranging from 600 μM to 1200 μM. At specific time points (1, 2, 3, 4, 5, 6, 7, 10, 15, 20, and 25 days), tubes were centrifuged at 5k rpm for 5 minutes and the supernatant was collected and stored at −80° C. Pellet was redispersed in 0.5 mL fresh media, and the incubation was continued. […]\nHuman retinal endothelial cells (HREC) were plated in transparent 96 well plates at a density of 2500 cells per well in 100 μL of growth medium and incubated for 24 h at 37° C. […] Fluorescence intensity of each well was read with excitation and emission wavelengths of 560 nm and 590 nm, respectively. […]"}}}
{"smiles": "COC1=CC(=O)C[C@@H](C)[C@]12Oc1c(Cl)c(OC)cc(OC)c1C2=O", "note": "[Free GRF, (2S,6′R)-7-chloro-2′,4,6-trimethoxy-6′-methyl-3H-spiro[benzofuran-2,1′-cyclohexan]-2′-ene-3,4′-dione]", "values": [{"measurement": "inhibited proliferation of HRECs", "setting": "[1]", "result": 53.5, "unit": "%"}, {"measurement": "long-term anti-proliferative effect on HREC (in words)", "setting": "[2]; release samples over the incubation period", "result": "effective only at the first time point"}, {"measurement": "time averaged proliferation inhibition index (PII)", "setting": "[2]; Σ AUC/time from % proliferation vs. time plot, HREC", "result": 13.6}]}
